Reference: patent US11628166B2, “Therapeutic uses of compounds having combined sert, 5-HT3 and 5-HT1a activity” (H. Lundbeck A/S, priority 2007, dated 2023)

How the values were obtained:
[1] = Contextual fear conditioning in rats; format: in vivo, rat; details: for time spent freezing during the retention test: test 24 h after acquisition
Description: The compound administered in the present experiment was 1-[2-(2,4-dimethylphenyl-sulfanyl)phenyl]piperazine HBr salt.
We have studied the effect of the compound on acquisition, consolidation and recall of contextual fear conditioning in rats. In the fear conditioning paradigm animals learn to associate a neutral environment (context, the training chamber, CS) with an aversive experience (an electrical foot-shock, US). During re-exposure to the training chamber, animals express a freezing behaviour, which is taken as a direct measure of the fear-related memory [Pavlov J. Biol. Sci., 15, 177-182, 1980]. […] Neurosci., 106, 274-285, 1992].
Adult male Sprague-Dawley rats (weighing 250-300 g at time of training) from Charles River Laboratories, housed two per cage under a 12 h light/dark cycle, were used. Food and water were available ad libitum. Rats were used 1 week after arrival. The compound was dissolved in 10% HPbetaCD and injected subcutaneously. The drug was administered in a volume of 2.5 ml/kg.
Training and testing were conducted in a soundproof chamber (30×20×40 cm) housed in an isolated room and connected to a ventilation system. Illumination was provided by a white light (60 Watt). The floor of the chamber consisted of a metal grid attached to an electric shock generator. Prior to training and testing, the chamber was cleaned with a 70% ethanol solution. A video camera allowed for behavioral observations and recording of the training session for off-line analysis.
During the acquisition animals were allowed to freely explore the novel environment for a 1 min habituation period, which co-terminated with one inescapable foot-shock (unconditioned stimulus, US) through the electrifiable grid floor. […] Animals remained in the conditioning chamber for another 60 s after the US. Freezing behaviour was scored during the first 58 s (pre-shock acquisition; experimenter blinded to groups) to determine baseline-freezing responses to the context. At the end of the acquisition animals were gently removed and placed into their home cages. After 24 h the same animals were reintroduced into the training context (fear conditioning chamber) and a 2 min retention test was performed. During this period no foot shocks were applied. Freezing behaviour was scored during the whole test period with the experimenter blinded to groups and presented as percent of total test period.

[2] = Microdialysis, extracellular acetylcholine levels in brain of freely moving rats; format: in vivo, rat; details: 2.5-10 mg/kg s.c.
Experimental: The animals were administered 1-[2-(2,4-dimethylphenylsulfanyl)phenyl]piperazine, HBr salt.
Male Sprague-Dawley rats, initially weighing 275-300 g, were used. The animals were housed under a 12-hr light/dark cycle under controlled conditions for regular in-door temperature (21±2° C.) and humidity (55±5%) with food and tap water available ad libitum.
Rats were anaesthetised with hypnorm/dormicum (2 ml/kg) and intracerebral guide cannulas (CMA/12) were stereotaxically implanted into the brain, aiming at positioning the dialysis probe tip in the ventral hippocampus (co-ordinates: 5.6 mm posterior to bregma, lateral −5.0 mm, 7.0 mm ventral to dura) or in the prefrontal cortex (co-ordinates: 3.2 mm anterior to bregma; lateral, 0.8 mm; 4.0 mm ventral to dura). […] The body temperature of the animals was monitored by rectal probe and maintained at 37° C. […]
The compound dissolved in 10% HPbetaCD and injected subcutaneously (2.5-10 mg/kg). Doses are expressed as mg salt/kg body weight. […]
Concentration of acetylcholine (ACh) in the dialysates was analysed by means of HPLC with electrochemical detection using a mobile phase consisting of 100 mM disodium hydrogenphosphate, 2.0 mM octane sulfonic acid, 0.5 mM tetramethylammonium chloride and 0.005% MB (ESA), pH 8.0. […] The latter was detected electrochemical by using a platinum electrode (Analytical cell: ESA, model 5040). […]

[3] = Hygroscopicity / water absorption on exposure to humidity; format: physicochemical
Solubility in water = format: physicochemical
[4] = Clinical trial, HAM-D items 4, 5 and 6 (insomnia early, middle, late); format: in vivo, human; details: 5 and 10 mg daily vs placebo, 6 weeks, approx. 100 patients per arm
Experimental: (§1) The HAM-D scale may be used to assess the severity of depression in patients by means of a 24 items questionnaire. Item 4, 5 and 6 of the scale relate to how the patients sleep, i.e., is it easy to fall asleep (insomnia Early), does the patient wake up during the night (Insomnia Middle), and does the patient wake up early in the morning (Insomnia Late). The compound was tested at 5 and 10 mg daily against placebo with approximately 100 patients per arm. […] It is well-known that sleep disturbances are a general adverse effect of most antidepressants. In particular SSRI's and compounds which inhibit the noradrenaline transporter are reported to give rise to problems with sleep initiation and maintenance and problems with insomnia are also often reported [Int.Clin.Psychpharm., 21 (suppl 1), S25-S29, 2006]. Others report that such compounds give rise to suppressed REM sleep, increased sleep latency, less efficient sleep, increase in nocturnal awakenings, and fragmentation of sleep [Hum.Psychopharm.Clin.Exp., 20, 533-559, 2005].

[5] = Mouse intradermal formalin test; format: in vivo; details: ~20-30 minutes after formalin
Experimental: In this model, mice receive an injection of formalin (4.5%, 20 μl) into the left hind paw. The irritation caused by the formalin injection elicits a characteristic biphasic behavioural response, as quantified by the amount of time spent licking the injured paw.
The first phase (˜0-10 minutes) represents direct chemical irritation and nociception, whereas the second phase (˜20-30 minutes) is thought to represent pain of […] origin. The two phases are separated by a quiescent period in which behaviour returns to normal. The effectiveness of test compounds to reduce the painful stimuli is assessed by counting the amount of time spent licking the injured paw in the two phases.

[6] = biological target: Human serotonin transporter (Homo sapiens, UniProt P31645); test: Human serotonin transporter, blockade of 5-HT uptake; format: biochemical
Human serotonin transporter, sequence (P31645 whole entry): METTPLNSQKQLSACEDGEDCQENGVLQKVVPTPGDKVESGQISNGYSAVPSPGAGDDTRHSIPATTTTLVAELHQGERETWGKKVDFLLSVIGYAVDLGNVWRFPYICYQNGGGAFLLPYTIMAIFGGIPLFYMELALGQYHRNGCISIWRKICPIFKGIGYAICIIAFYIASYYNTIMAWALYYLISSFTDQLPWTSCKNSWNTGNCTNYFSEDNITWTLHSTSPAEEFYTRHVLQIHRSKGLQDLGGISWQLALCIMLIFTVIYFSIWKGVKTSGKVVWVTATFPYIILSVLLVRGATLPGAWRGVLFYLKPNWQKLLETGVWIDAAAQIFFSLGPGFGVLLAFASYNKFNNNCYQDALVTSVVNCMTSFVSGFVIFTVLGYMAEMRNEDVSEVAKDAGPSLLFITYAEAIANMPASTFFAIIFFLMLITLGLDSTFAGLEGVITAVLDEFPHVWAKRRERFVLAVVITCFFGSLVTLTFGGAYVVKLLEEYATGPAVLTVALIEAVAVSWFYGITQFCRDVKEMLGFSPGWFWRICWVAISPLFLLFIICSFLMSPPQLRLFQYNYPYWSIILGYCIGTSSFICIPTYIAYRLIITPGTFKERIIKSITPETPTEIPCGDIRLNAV

[7] = Clinical trial, sexually related adverse effects reported by patients; format: in vivo, human
Experimental: as §1
The above mentioned clinical trial also captured sexual adverse effects reported by the patients.

Br.Cc1ccc(Sc2ccccc2N2CCNCC2)c(C)c1 [1-[2-(2,4-dimethylphenylsulfanyl)phenyl]piperazine HBr salt]
time spent freezing during the retention test ([1]; 5 mg/kg s.c. 1 h prior to acquisition, n=6): 39.24±13.76%
freezing behaviour during the memory test ([1]; 5 mg/kg s.c. 1 h prior to the retention test, n=9, p<0.05): 12.86±3.57%
time spent freezing during the retention test ([1]; 5 mg/kg s.c. after the acquisition session, n=8, p<0.05): 45.58±4.50%
time spent freezing during the retention test ([1]; 10 mg/kg s.c. 1 h prior to acquisition, n=10, p<0.01): 52.15±5.68%
baseline freezing behaviour before the foot shock ([1]; 1, 5 and 10 mg/kg s.c., 1 h prior to acquisition): does not affect baseline freezing behaviour
extra-cellular levels of ACh in prefrontal cortex ([2]; rat prefrontal cortex): significantly increased
extra-cellular levels of ACh in ventral hippocampus ([2]; rat ventral hippocampus): significantly increased

Cc1ccc(Sc2ccccc2N2CCNCC2)c(C)c1 [Crystalline base, 1-[2-(2,4-dimethylphenylsulfanyl)-phenyl]piperazine]
hygroscopicity [3]: not hygroscopic

Br.Cc1ccc(Sc2ccccc2N2CCNCC2)c(C)c1 [alpha form of the hydrobromide]
solubility in water (Solubility in water): 2000 µg/mL

Br.Cc1ccc(Sc2ccccc2N2CCNCC2)c(C)c1 [beta form of the hydrobromide]
solubility in water (Solubility in water): 1200 µg/mL

Cc1ccc(Sc2ccccc2N2CCNCC2)c(C)c1 [compound I, 1-[2-(2,4-dimethylphenyl-sulfanyl)-phenyl]piperazine]
change in sleep pattern, HAM-D items 4-6 [4]: large and dose dependent improvement of the sleep pattern
second phase pain scores (time spent licking the paw) [5]: significant reduction
IC50 [6]: 5.4 nM
number of patients reporting Anorgasmia ([7]; 5 mg daily): 0
number of patients reporting Ejaculation delayed ([7]; 5 mg daily): 0
number of patients reporting Erectile dysfunction ([7]; 5 mg daily): 0
number of patients reporting Libido decreased ([7]; 5 mg daily): 1
number of patients reporting Loss of libido ([7]; 5 mg daily): 1
number of patients reporting Orgasm abnormal ([7]; 5 mg daily): 0
number of patients reporting Orgasmic sensation decreased ([7]; 5 mg daily): 0
number of patients reporting Anorgasmia ([7]; 10 mg daily): 0
number of patients reporting Ejaculation delayed ([7]; 10 mg daily): 0
number of patients reporting Erectile dysfunction ([7]; 10 mg daily): 0
number of patients reporting Libido decreased ([7]; 10 mg daily): 1
number of patients reporting Loss of libido ([7]; 10 mg daily): 0
number of patients reporting Orgasm abnormal ([7]; 10 mg daily): 0
number of patients reporting Orgasmic sensation decreased ([7]; 10 mg daily): 0

Br.Cc1ccc(Sc2ccccc2N2CCNCC2)c(C)c1 [gamma form of the hydrobromide]
water absorbed ([3]; 30% RH at room temperature): about 2%

Br.Cc1ccc(Sc2ccccc2N2CCNCC2)c(C)c1 [hemi hydrate of the hydrobromide]
water content ([3]; room temperature and 95% RH): about 3.7%
